Assay results: ChEMBL document CHEMBL1143644, “Synthesis and biological activities of novel aryl indole-2-carboxylic acid analogs as PPARgamma partial agonists” (Bioorg Med Chem Lett, 2005)

How the values were obtained:
[1] = molecular target: T1, Peroxisome proliferator-activated receptor alpha (Homo sapiens, UniProt Q07869); experiment: Inhibitory concentration against human peroxisome proliferator activated receptor alpha in SPA assay
T1 sequence (Q07869 whole entry): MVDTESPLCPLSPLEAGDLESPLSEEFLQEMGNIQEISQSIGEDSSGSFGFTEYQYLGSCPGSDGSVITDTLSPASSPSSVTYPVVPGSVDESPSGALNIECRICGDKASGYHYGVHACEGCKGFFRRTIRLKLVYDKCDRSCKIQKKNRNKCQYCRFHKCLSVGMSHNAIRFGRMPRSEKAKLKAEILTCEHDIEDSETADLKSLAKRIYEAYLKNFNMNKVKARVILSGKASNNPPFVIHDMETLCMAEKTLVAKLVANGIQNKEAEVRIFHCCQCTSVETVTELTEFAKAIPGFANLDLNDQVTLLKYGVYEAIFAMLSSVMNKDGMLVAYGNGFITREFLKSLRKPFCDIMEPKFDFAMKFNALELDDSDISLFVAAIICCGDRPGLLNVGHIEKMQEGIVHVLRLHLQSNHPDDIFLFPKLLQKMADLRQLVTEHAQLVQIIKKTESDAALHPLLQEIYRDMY

[2] = molecular target: T2, Peroxisome proliferator-activated receptor gamma (Homo sapiens, UniProt P37231); experiment: Effective agonist concentration for human PPAR gamma Gal4 construct in transactivation assay; format: functional
T2 sequence (P37231 whole entry): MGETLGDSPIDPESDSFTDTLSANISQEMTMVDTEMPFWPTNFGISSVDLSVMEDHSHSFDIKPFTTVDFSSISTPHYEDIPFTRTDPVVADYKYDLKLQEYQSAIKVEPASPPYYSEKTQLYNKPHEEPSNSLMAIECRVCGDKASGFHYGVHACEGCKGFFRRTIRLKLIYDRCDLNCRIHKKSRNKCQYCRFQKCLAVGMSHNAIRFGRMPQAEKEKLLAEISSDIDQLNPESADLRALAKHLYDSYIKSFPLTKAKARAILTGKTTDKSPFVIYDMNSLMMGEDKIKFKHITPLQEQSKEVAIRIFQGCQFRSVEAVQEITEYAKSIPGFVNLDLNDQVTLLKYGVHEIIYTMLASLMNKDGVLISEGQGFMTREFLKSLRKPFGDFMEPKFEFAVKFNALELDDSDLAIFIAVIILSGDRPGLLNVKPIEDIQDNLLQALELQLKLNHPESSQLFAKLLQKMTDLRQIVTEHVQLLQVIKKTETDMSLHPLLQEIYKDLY

[3] = Area under curve at normal dose was determined; format: ADME
[4] = Half life at normal dose was determined; format: ADME
[5] = molecular target: T2, Peroxisome proliferator-activated receptor gamma
Description: Inhibitory concentration against human peroxisome proliferator activated receptor gamma in SPA assay

[6] = Bioavailability; format: ADME, organism-based; details: eutheria, in vivo

SMILES	IC50 [1]	EC50 [2]	AUC [3]	half-life [4]	IC50 [5]	bioavailability [6]
CC(C)(C)c1ccc(-n2c(C(=O)O)c(Oc3cccc(C(F)(F)F)c3)c3ccccc32)cc1	10600 nM	13 nM	9.19 µM·h	30 min	12 nM	
CC(C)(C)c1ccc(-n2c(C(=O)O)c(Oc3cccc(C(F)(F)F)c3)c3ccc(Cl)cc32)cc1	> 15000 nM	106 nM			27 nM	
CC(C)c1cccc(Oc2c(C(=O)O)n(-c3ccc(C(C)(C)C)cc3)c3cc(Cl)ccc23)c1	> 15000 nM				19 nM	
COc1cccc(Oc2c(C(=O)O)n(-c3ccc(C(C)(C)C)cc3)c3nc(Cl)ccc23)c1	> 15000 nM	755 nM			104 nM	
COc1ccc2c(Oc3cccc(C(F)(F)F)c3)c(C(=O)O)n(-c3ccc(C(C)(C)C)cc3)c2n1	> 15000 nM	299 nM			100 nM	
CC(C)c1cccc(-n2c(C(=O)O)c(Oc3cccc(O)c3)c3ccccc32)c1	> 50000 nM				102 nM	
CCOc1cccc(Oc2c(C(=O)O)n(-c3ccc(C(C)(C)C)cc3)c3ccccc23)c1	> 50000 nM	233 nM			49 nM	
CC(C)(C)c1ccc(-n2c(C(=O)O)c(Oc3cccc(C(F)(F)F)c3)c3cc(O)ccc32)cc1	> 50000 nM				318 nM	
CC(C)(C)c1ccc(-n2c(C(=O)O)c(Oc3ccc(OC(F)(F)F)cc3)c3ccccc32)cc1	3580 nM				49 nM	
CC(C)(C)c1ccc(-n2c(C(=O)O)c(Oc3cccc(C(F)(F)F)c3)c3cc(Cl)ccc32)cc1	> 15000 nM	136 nM			17 nM	
O=C(O)c1c(Oc2cccc(C(F)(F)F)c2)c2ccccc2n1-c1ccc(C(F)(F)F)cc1	3200 nM				107 nM	
CC(C)(C)c1ccc(-n2c(C(=O)O)c(Oc3cccc(S(C)(=O)=O)c3)c3ccc(Cl)nc32)cc1	> 50000 nM				202 nM	
CC(C)(C)c1ccc(-n2c(C(=O)O)c(Oc3ccc(Cl)cc3)c3ccc(OC(F)(F)F)cc32)cc1	> 15000 nM	411 nM			298 nM	
COc1ccc2c(c1)c(Oc1cccc(C(F)(F)F)c1)c(C(=O)O)n2-c1ccc(C(C)(C)C)cc1	> 15000 nM				39 nM	
CC(C)(C)c1ccc(-n2c(C(=O)O)c(Oc3cccc(O)c3)c3ccccc32)cc1	> 50000 nM	161 nM			78 nM	
CC(C)(C)c1ccc(-n2c(C(=O)O)c(Oc3ccc(Cl)c(C(F)(F)F)c3)c3cc(Cl)ccc32)cc1	4480 nM				13 nM	
CC(C)(C)c1ccc(-n2c(C(=O)O)c(Oc3cccc(C(F)(F)F)c3)c3cc(Oc4cc(Cl)c[nH]4)ccc32)cc1	> 15000 nM	2 nM	0.3 µM·h	108 min	2 nM	9.8%
CC(C)(C)c1ccc(-n2c(C(=O)O)c(Oc3cc(C(F)(F)F)cc(C(F)(F)F)c3)c3cc(Cl)ccc32)cc1	> 15000 nM				83 nM	
CC(C)(C)c1ccc(-n2c(C(=O)O)c(Oc3cccc(C(F)(F)F)c3)c3cc(Oc4ccccn4)ccc32)cc1		126 nM				
CC(C)(C)c1ccc(-n2c(C(=O)O)c(Oc3cccc(C(F)(F)F)c3)c3cc(Oc4cc(C(F)(F)F)ccn4)ccc32)cc1		6 nM		48 min		2.4%
CC(C)(C)c1ccc(-n2c(C(=O)O)c(Oc3cccc(C(F)(F)F)c3)c3cccnc32)cc1	> 50000 nM	464 nM			75 nM	
CC(C)(C)c1ccc(-n2c(C(=O)O)c(Oc3cccc(-c4cc(C(F)(F)F)c[nH]4)c3)c3ccc(Cl)nc32)cc1	> 50000 nM	95 nM			58 nM	
CC(C)c1cccc(-n2c(C(=O)O)c(Oc3cccc(C(F)(F)F)c3)c3ccccc32)c1	> 15000 nM				60 nM	
CC(C)(C)c1ccc(-n2c(C(=O)O)c(Oc3cccc(C(F)(F)F)c3)c3ccc(Cl)nc32)cc1	> 15000 nM	176 nM			21 nM	
CC(C)c1cccc(-n2c(C(=O)O)c(Oc3ccc(C(F)(F)F)cc3)c3ccccc32)c1	> 15000 nM				120 nM	
CC(C)(C)c1ccc(-n2c(C(=O)O)c(Oc3ccc(-c4cc(C(F)(F)F)c[nH]4)cc3)c3cccnc32)cc1	> 50000 nM	34 nM			251 nM	
CC(C)COc1ccc2c(c1)c(Oc1cccc(C(F)(F)F)c1)c(C(=O)O)n2-c1ccc(C(C)(C)C)cc1	4150 nM	91 nM			18 nM	
CCOc1ccc2c(c1)c(Oc1cccc(C(F)(F)F)c1)c(C(=O)O)n2-c1ccc(C(C)(C)C)cc1	6270 nM	34 nM			18 nM	
COc1ccc(-n2c(C(=O)O)c(Oc3cccc(C(F)(F)F)c3)c3ccccc32)cc1	> 50000 nM	334 nM			115 nM	
O=C(O)c1c(Sc2ccccc2)c2cc(Cl)ccc2n1Cc1ccc(Cl)cc1	> 15000 nM					
